# Assay results from the supplement of paper PMC11781733.
# Where a name gives a salt, the structure may show the parent alone.
# Legend:
# Settings in all cases: exposure time: 15 min to 3 h acute
# [1] = test system: Dugesia japonica; assay: crawl-out incidence (% planarians); higher = higher incidence or increase relative to vehicle control
# Protocol: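 Adult asexual Dugesia japonica planarians (1 per well, 48-well plate, n=24 over technical triplicates) were exposed acutely (15 min to 3 h) to each compound (0.5% DMSO or water vehicle) and screened on a robotic platform for crawl-out, stickiness, body shape, phototaxis, noxious-heat scrunching and locomotion endpoints. Binary endpoints are incidence rate x100. Continuous endpoints are the median response normalised to the plate vehicle median, as % change or difference. Negative incidences after vehicle subtraction were set to 0.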
# [2] = test system: Dugesia japonica; assay: speed in dark vs vehicle (% change vs vehicle); higher = higher incidence or increase relative to vehicle control
# Protocol: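 Adult asexual Dugesia japonica planarians (1 per well, 48-well plate, n=24 over technical triplicates) were exposed acutely (15 min to 3 h) to each compound (0.5% DMSO or water vehicle) and screened on a robotic platform for crawl-out, stickiness, body shape, phototaxis, noxious-heat scrunching and locomotion endpoints. Binary endpoints are incidence rate x100 normalised to in-plate vehicle controls. Continuous endpoints are the median response normalised to the plate vehicle median, as % change or difference. Negative incidences after vehicle subtraction were set to 0.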
# [3] = test system: Dugesia japonica; assay: C-shape incidence (% planarians (vehicle-normalised)); higher = higher incidence or increase relative to vehicle control
# Method in brief: (§1)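 Body shape incidence, for a given shape or for any abnormal shape, is reported ×100 and normalised to vehicle controls on the same plate, with negative values set to 0. D. japonica planarians fasted for 5–7 days were placed one per well in 200 μL in sealed 48-well plates and exposed to at least 5 concentrations. Within 15 minutes–3 hours of exposure, a researcher scored contraction, C-shape, corkscrew and hyperkinesis manually and blind, excluding worms that crawled out.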
# [4] = test system: Dugesia japonica; assay: corkscrew incidence (% planarians (vehicle-normalised)); higher = higher incidence or increase relative to vehicle control
# Method in brief: as §1
# [5] = test system: Dugesia japonica; assay: stickiness incidence (% planarians (vehicle-normalised)); higher = higher incidence or increase relative to vehicle control
# Method in brief: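 Worms that crawled out of their wells were excluded from this binary stickiness endpoint, scored in fasted Dugesia japonica planarians and normalised to vehicle incidence on the same plate. Each planarian was kept alone in a sealed 48-well plate well in 200 μL of solution, with 0.5% DMSO or water as vehicle, and tested 15 min–3 h after exposure to half- or quarter-log concentration series. Technical triplicates were pooled (n = 24), negative values became 0, and values were multiplied by 100.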
# [6] = test system: Dugesia japonica; assay: hyperkinesis incidence (% planarians (vehicle-normalised)); higher = higher incidence or increase relative to vehicle control
# Method in brief: as §1
# [7] = test system: Dugesia japonica; assay: speed first 30 s blue light vs vehicle (% change vs vehicle); higher = higher incidence or increase relative to vehicle control
# Method in brief: (§2)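 Crawling speed in the dark or during blue-light periods was measured by automated tracking of intact, fasted Dugesia japonica, one per well of a 48-well plate in 200 μL. Worms were tested 15 min to 3 h after exposure in 0.5% DMSO or water vehicle. Eight worms per concentration per plate were run in technical triplicate (n = 24). Each worm was normalised to the plate's vehicle median, and the value is the median percent change; worms that crawled out were excluded.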
# [8] = test system: Dugesia japonica; assay: speed second 30 s blue light vs vehicle (% change vs vehicle); higher = higher incidence or increase relative to vehicle control
# Method in brief: as §2
# [9] = test system: Dugesia japonica; assay: pharynx extrusion incidence (% planarians (vehicle-normalised)); higher = higher incidence or increase relative to vehicle control
# Method in brief: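 Fasted, intact Dugesia japonica were scored manually and blind for pharynx extrusion as a body-shape category, with the incidence normalised to in-plate vehicle controls. Testing took place 15 min to 3 h after exposure, one worm per well in 200 μL of 0.5% DMSO or water vehicle, with eight worms per concentration per plate in triplicate (n = 24). Worms that crawled out were excluded, and negative values were set to 0.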
# [10] = test system: Dugesia japonica; assay: loss of phototaxis incidence (% planarians (vehicle-normalised)); higher = higher incidence or increase relative to vehicle control
# Method in brief: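 For each concentration, eight intact, fasted Dugesia japonica per plate were placed singly in wells of a 48-well plate in 200 μL and run in technical triplicate (n = 24). Testing took place 15 min to 3 h after exposure in 0.5% DMSO or water vehicle. Loss of phototaxis was recorded as present or absent by automated object tracking and expressed as an incidence rate normalised to in-plate vehicle controls. For this rate, ×100 was applied, negatives were set to 0, and worms that crawled out were excluded.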
# [11] = test system: Dugesia japonica; assay: total locomotor bursts minus vehicle (bursts difference vs vehicle); higher = higher incidence or increase relative to vehicle control
# Method in brief: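 The value is the median normalised response for total locomotor bursts, an unstimulated behaviour measured by image-based object tracking in fasted Dugesia japonica planarians. Animals sat singly in the wells of a sealed 48-well plate in 200 μL solution and were tested 15 min–3 h after exposure to half- or quarter-log concentration series in 0.5% DMSO or water. Each planarian's value was corrected by subtracting the plate vehicle-control median, with no ×100 scaling, and crawled-out worms were left out.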
# [12] = test system: Dugesia japonica; assay: noxious heat displacement strength vs vehicle (% change vs vehicle); higher = higher incidence or increase relative to vehicle control
# Method in brief: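 Each intact, fasted Dugesia japonica was tested alone in a well of a 48-well plate in 200 μL, 15 min to 3 h after exposure in 0.5% DMSO or water vehicle. Eight worms per concentration per plate were used in technical triplicate (n = 24). Displacement strength under noxious heat came from the scrunching assay with automated object tracking and is given as the median percent change against the plate's vehicle median, excluding worms that crawled out.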
# [13] = test system: Dugesia japonica; assay: contracted body shape incidence (% planarians (vehicle-normalised)); higher = higher incidence or increase relative to vehicle control
# Method in brief: as §1
# [14] = test system: Dugesia japonica; assay: anxiety (time in outer well region) vs vehicle (% change vs vehicle); higher = higher incidence or increase relative to vehicle control
# Method in brief: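 Dugesia japonica planarians fasted for 5–7 days were placed one per well in 200 μL in sealed 48-well plates and exposed to at least 5 concentrations, with n = 24 per concentration in technical triplicates, then screened within 15 minutes–3 hours. Object tracking in MATLAB or Python measured the time each worm spent in the outer portion of the well, and worms that crawled out were excluded. Each response was divided by, or reduced by, the plate vehicle median and multiplied by 100. The reported value is the median of these normalized responses.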
# [15] = test system: Dugesia japonica; assay: any abnormal body shape incidence (% planarians (vehicle-normalised)); higher = higher incidence or increase relative to vehicle control
# Method in brief: as §1
# [16] = test system: Dugesia japonica; assay: resting fraction in dark vs vehicle (difference in fraction x100 vs vehicle); higher = higher incidence or increase relative to vehicle control
# Method in brief: (§3)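 In technical triplicate, eight intact, fasted Dugesia japonica per concentration per plate were tracked automatically to score the resting fraction in the dark or under blue light. Each worm had its own well of a 48-well plate containing 200 μL and was tested 15 min to 3 h after exposure in 0.5% DMSO or water vehicle. Reported values are medians of each worm's difference from the plate's vehicle median multiplied by 100, leaving out worms that crawled out.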
# [17] = test system: Dugesia japonica; assay: loss of heat-induced scrunching incidence (% planarians (vehicle-normalised)); higher = higher incidence or increase relative to vehicle control
# Method in brief: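 Planarians of the species D. japonica, fasted for 5–7 days, were placed singly in wells of sealed 48-well plates in 200 μL and exposed to at least 5 concentrations, 24 worms per concentration in technical triplicates. Scrunching in response to a noxious heat stimulus was tested within 15 minutes–3 hours, and any worm that crawled out was excluded. The reported figure is the incidence of non-scrunching worms, normalised to vehicle controls on the same plate. This incidence is given ×100, with negatives set to 0.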
# [18] = test system: Dugesia japonica; assay: resting fraction in blue light vs vehicle (difference in fraction x100 vs vehicle); higher = higher incidence or increase relative to vehicle control
# Method in brief: as §3
SMILES,crawl-out incidence [1],speed in dark [2],C-shape incidence [3],corkscrew incidence [4],stickiness incidence [5],hyperkinesis incidence [6],speed first 30 s blue light [7],speed second 30 s blue light [8],pharynx extrusion incidence [9],loss of phototaxis incidence [10],total locomotor bursts minus vehicle [11],noxious heat displacement strength [12],contracted body shape incidence [13],anxiety [14],any abnormal body shape incidence [15],resting fraction in dark [16],loss of heat-induced scrunching incidence [17],resting fraction in blue light [18]
CNCC[C@H](Oc1cccc2ccccc12)c1cccs1 [s-duloxetine] (1 µM),4.17,13.6,0,0,13,0,34.6,-13.5,0,17.4,7,-35.3,0,12.8,0,-7.56,13,9.83
CN[C@H]1CC[C@@H](c2ccc(Cl)c(Cl)c2)c2ccccc21 [sertraline hydrochloride] (1 µM),0,0.19,0,0,8.33,12.5,-11.7,-15.7,0,≤ 0,-2.5,-12.6,0,5.35,12.5,5.44,4.17,0
CCCCNc1c(C(=O)OCC)c(C)nc2c1cnn2CC [tracazolate hydrochloride] (1 µM),0,-16.4,0,0,8.33,0,-20,-8.21,0,≤ 0,3.25,-26.2,0,-16.4,0,1.34,≤ 0,0.18
